Reference: US20260035668A1, “ORGANOID CULTURE COMPOSITION FOR INDUCING RESERVE STEM CELLS AND CULTURE METHOD USING SAME” (KOREA UNIVERSITY RESEARCH AND BUSINESS FOUNDATION, priority 2022, published 2026)
“Also recorded” adds a separate entry of the source.

Key:
Format in all cases: cell-based, C57Bl/6 mice
[1] = test system: small intestine-derived organoids; experiment: Immunofluorescence of reserve stem cell marker TERT in SAG-treated organoids; conditions: 1 μM SAG after 3 μM CHIR99021 + 1 mM valproic acid; over time after incubation; FIG. 1
Method: To prepare small intestine-derived organoids, small intestine tissue was isolated from 4 to 8 week-old C57Bl/6 mice and perfused with PBS. The tissue was cut into pieces of 2 to 4 mm in size, placed in PBS, and washed clearly about 10 times. Then, the tissue was placed in PBS containing 200 mM EDTA, and incubated at 4° C. for 1 hour with shaking. Thereafter, the cells detached from the tissue were passed through a 70 um cell strainer, and centrifuged at 200 g. Organoids were prepared by mixing Matrigel in a 1:1 volume ratio with a culture medium containing settled small intestinal crypts and then performing three-dimensional culture.
The medium was prepared by adding a 10 mM HEPES buffer, 1X glutamax, 1 mM N-acetylcysteine, 1 volume of N2, 2 volumes of B-27, 20 volumes of RSPO (R-spodin), 10 volumes of noggin per 100 volumes of total medium, and 50 ng/ml of EGF to advanced DMEM F/12 medium (Gibco™, Cat. No 12634010) as a basic medium for small intestine organoids.
Subsequently, 10 μM Y-27632 was added to the medium, and the organoids prepared in Example 1-1 were inoculated and cultured for 3 days. […]

[2] = test system: small intestine-derived organoids; experiment: Expression of cell proliferation marker Ki-67 by immunofluorescence; conditions: 1 μM SAG culture medium; 0, 24 and 48 hours after completion of culture; vs control group; FIG. 3
Method: (§1) Specifically, the organoids were fixed with 4% PFA, and 0.1% Triton X-100 in PBS was used to increase a permeability of the organoids. Subsequently, 3% BSA and 0.1% Triton X-100 were placed in a solution diluted in PBS for 1 hour to block a membrane of the organoids, and incubated with primary antibodies (anti-hTERT (ab32020, abcam), anti-Ki67 (ab16667, abcam), anti-Green Fluorescent Protein (GFP-1020, aveslabs), anti-Dclk1 (ab31704, abcam), anti-UEA 1 (RL-1062-2, Vector Laboratories)) at 4° C. for 1 day. After washing with PBS three times for 10 minutes at room temperature, incubation was performed with fluorescent secondary antibodies corresponding to each primary antibody for 2 hours. After washing gain with PBS three times for 10 minutes at room temperature, the organoid nuclei were stained with 4′, 6-diamidino-2-phenylindole, dihydrochloride (DAPI) for 5 minutes at room temperature. In order to confirm the radiation resistance of reserve stem cell-derived organoids prepared in Example 1, the formation of small intestinal crypts and the expression of a cell proliferation marker Ki-67 were confirmed after radiation expose. Specifically, 3 μM CHIR99021 and 1 mM Valproic acid were added to advanced DMEM F/12 medium supplemented with HEPES, glutamax, N-acetylcysteine, N2, B-27, R-spodin, noggin, and EGF. […]

[3] = test system: small intestine-derived organoids; experiment: Radiation resistance: formation of small intestinal crypts after X-ray irradiation; conditions: FIG. 2
Method: In order to confirm the radiation resistance of reserve stem cell-derived organoids prepared in Example 1, the formation of small intestinal crypts and the expression of a cell proliferation marker Ki-67 were confirmed after radiation expose. Specifically, 3 μM CHIR99021 and 1 mM Valproic acid were added to advanced DMEM F/12 medium supplemented with HEPES, glutamax, N-acetylcysteine, N2, B-27, R-spodin, noggin, and EGF. Thereafter, the organoids prepared in Example 1-1 were inoculated and cultured for 6 days, and then cultured for 3 days each under the conditions shown in the table below. [table] Then, the organoids cultured under each culture condition were irradiated once with 6 Gy of X-ray using a radiation irradiator (rs-320), and the formation of small intestinal crypts was confirmed after 72 hours.

[4] = test system: small intestinal organoids; experiment: Differentiation potential: Dclk1 (tuft cells) and UEA-1 (goblet cells) immunofluorescence; conditions: culture medium comprising SAG vs control group not comprising SAG; FIG. 4
Method: Subsequently, 10 μM Y-27632 was added to the medium, and the organoids prepared in Example 1-1 were inoculated and cultured for 3 days. Then, 3 μM CHIR99021 (Sigma-Aldrich, Cat. No SML1046-5 MG) and 1 mM valproic acid (Sigma-Aldrich, Cat. No P4543-10G) were added and incubated for 4 days at 37° C. in a 5% CO2 incubator, followed by treatment with 1 μM SAG (Abcam, Cat. No ab142160) and incubation to culture the reserve stem cell-induced organoids.
as §1, with “temperature.” for “temperature. In order to confirm the radiation resistance of reserve stem cell-derived organoids prepared in Example 1, the formation of small intestinal crypts and the expression of a cell proliferation marker Ki-67 were confirmed after radiation expose. Specifically, 3 μM CHIR99021 and 1 mM Valproic acid were added to advanced DMEM F/12 medium supplemented with HEPES, glutamax, N-acetylcysteine, N2, B-27, R-spodin, noggin, and EGF.”

CNC1CCC(N(Cc2cccc(-c3ccncc3)c2)C(=O)c2sc3ccccc3c2Cl)CC1 (stereo not drawn) [SAG, smoothened receptor agonist (SAG)]
activity of TERT (reserve stem cell marker) [1]: significantly increased over time | expression of cell proliferation marker Ki-67 [2]: expressed at a significantly higher level than a control group at each time point | formation of small intestinal crypts ([3]; 1 μM SAG + 3 μM CHIR99021 + 1 mM valproic acid, 3 days, 6 Gy X-ray once, after 72 hours, vs control groups 1 and 2): significantly better formation of small intestinal crypts compared to the other control groups | radiation resistance ([3]; 1 μM SAG, 6 Gy X-ray, vs control groups): had resistance to radiation; also recorded: significantly higher radiation resistance than the other control groups | Dclk1 (tuft cells) marker [4]: significantly increased compared to the control group | UEA-1 (goblet cells) marker [4]: significantly increased compared to the control group
